Data taken from patent US9580413B2, “Substituted pyrrolidines as ROS tyrosine kinase inhibitors” (NIPPON SHINYAKU CO., LTD., priority 2012, dated 2017).
pIC50: −log10 of the molar value. Counter-ions that a name gives are not always drawn.

Tests used:
ROS tyrosine kinase = biological target: T1, ROS tyrosine kinase (Homo sapiens, UniProt P08922); experiment: ROS tyrosine kinase inhibitory activity test (ELISA); assay type: biochemical, humans; conditions: 25 μM ATP substrate solution, 30° C., one hour
T1 construct: purchased Carna Biosciences, Inc
Outline: (§1)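 Human recombinant ROS or JAK2 kinase (added as a 0.25 nM solution) reacted for 1 h at 30 °C in 15 mM Tris-Cl pH 7.5, 0.01% Tween-20, 1 mM DTT with compound from DMSO. Substrate phosphotyrosine was detected by HRP anti-phosphotyrosine antibody and TMB at A450, and IC50 came from non-linear regression.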

JAK2 tyrosine kinase = biological target: T2, JAK2 tyrosine kinase (Homo sapiens, UniProt O60674); experiment: JAK2 tyrosine kinase inhibitory activity test (ELISA); assay type: biochemical, humans; conditions: 25 μM ATP substrate solution, 30° C., one hour
T2 construct: purchased Carna Biosciences, Inc
Outline: as §1

FIG-ROS/BaF3 cell = biological target: T3, FIG-ROS/BaF3 cell (Homo sapiens, UniProt P08922); experiment: Proliferation inhibitory activity test against FIG-ROS/BaF3 cell; assay type: cell-based; conditions: 3 days incubation, cell counting kit; read-out: Proliferation inhibitory activity against FIG-ROS/BaF3 cell (IC50)
T3 construct: fused on or other part: Q9HD26 (Golgi-associated PDZ and coiled-coil motif-containing protein)
Description: A BaF3 cell which had been transformed by introducing the FIG-ROS fusion gene (derived from U118MG human glioma cell) (FIG-ROS/BaF3 Cell) was prepared on a culture medium, seeded on a 96-well plate in the number of 1×10^3/100 μL per well, and then allowed to stand in a CO2 incubator (at 37° C. and 5% CO2). As the culture medium, 10% FBS (fetal bovine serum)-incorporated RPMI-1640 was used.
2. Proliferation Inhibitory Activity Test:
A test substance was dissolved in dimethyl sulfoxide (DMSO) to 10 mM and further diluted with DMSO to 100-fold to prepare a 100 μM solution. This was diluted with a 1% DMSO-incorporated medium to concentrations of 10-fold of the concentration to be measured (10,000, 1,000, 100, 10, and 1 nM). Each of the medicine solutions was added at 11 μL per well and mixed. To a control having no medicine added thereto, a 1% DMSO-incorporated medium was added, and incubated in a CO2 incubator (at 37° C. and 5% CO2) for 3 days. After completion of the incubation, the number of live cells was counted using a cell counting kit. First of all, each cell counting kit solution was added at 5 μL per well and mixed, and incubated in a CO2 incubator (at 37° C. and 5% CO2) for 4 hours. An absorbance at 450 nm was measured with a microplate reader (Model 3550, manufactured by BIO-RAD, Benchmark, manufactured by BIO-RAD, or iMARK, manufactured by BIO-RAD) with a reference wavelength of 650 nm.
3. Analysis of Measurement Results:
A non-linear regression analysis was performed for the measured absorbance with an SAS system (SAS Institute Inc.), and a concentration of each of the test substances of inhibiting the cell proliferation at 50% (IC50) was calculated. The proliferation inhibitory activity (IC50, nM) of each of the test substances against the FIG-ROS/BaF3 cell is shown in Table 9.

[1] = test system: non-small cell lung cancer with ROS fusion gene positive; conditions: clinical application, Non-Patent Document 22; cited from earlier work

T2 sequence (O60674 whole entry): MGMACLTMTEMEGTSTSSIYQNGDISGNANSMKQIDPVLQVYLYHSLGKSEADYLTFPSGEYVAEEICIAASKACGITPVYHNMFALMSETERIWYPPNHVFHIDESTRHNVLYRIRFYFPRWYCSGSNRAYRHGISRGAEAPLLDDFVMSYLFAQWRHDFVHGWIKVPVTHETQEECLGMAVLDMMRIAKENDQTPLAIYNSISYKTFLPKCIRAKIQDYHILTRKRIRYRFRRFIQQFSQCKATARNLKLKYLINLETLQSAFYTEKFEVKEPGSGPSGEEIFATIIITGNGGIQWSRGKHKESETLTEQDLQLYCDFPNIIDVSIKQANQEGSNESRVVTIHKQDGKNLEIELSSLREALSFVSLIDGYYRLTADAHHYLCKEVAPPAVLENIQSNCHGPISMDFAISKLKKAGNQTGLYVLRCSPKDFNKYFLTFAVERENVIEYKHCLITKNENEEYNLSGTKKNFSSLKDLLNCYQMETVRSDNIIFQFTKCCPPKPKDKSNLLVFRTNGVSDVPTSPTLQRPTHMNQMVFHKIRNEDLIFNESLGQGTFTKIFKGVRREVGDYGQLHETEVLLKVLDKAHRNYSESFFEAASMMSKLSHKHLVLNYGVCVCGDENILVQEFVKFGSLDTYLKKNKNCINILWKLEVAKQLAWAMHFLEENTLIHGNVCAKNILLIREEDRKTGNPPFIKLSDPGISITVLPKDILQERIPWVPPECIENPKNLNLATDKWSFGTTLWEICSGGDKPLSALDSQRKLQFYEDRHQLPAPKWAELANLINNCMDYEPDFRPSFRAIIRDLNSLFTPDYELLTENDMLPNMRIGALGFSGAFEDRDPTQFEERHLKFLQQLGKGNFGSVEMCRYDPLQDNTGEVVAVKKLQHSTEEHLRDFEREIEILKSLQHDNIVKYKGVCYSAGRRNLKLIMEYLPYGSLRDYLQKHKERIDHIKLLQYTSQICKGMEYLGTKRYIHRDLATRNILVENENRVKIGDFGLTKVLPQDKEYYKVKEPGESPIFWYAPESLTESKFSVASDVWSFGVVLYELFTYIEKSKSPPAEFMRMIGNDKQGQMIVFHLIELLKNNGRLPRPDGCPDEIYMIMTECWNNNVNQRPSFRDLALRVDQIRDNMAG
T3 sequence (P08922 whole entry, stated change not applied, the tested form may be a part): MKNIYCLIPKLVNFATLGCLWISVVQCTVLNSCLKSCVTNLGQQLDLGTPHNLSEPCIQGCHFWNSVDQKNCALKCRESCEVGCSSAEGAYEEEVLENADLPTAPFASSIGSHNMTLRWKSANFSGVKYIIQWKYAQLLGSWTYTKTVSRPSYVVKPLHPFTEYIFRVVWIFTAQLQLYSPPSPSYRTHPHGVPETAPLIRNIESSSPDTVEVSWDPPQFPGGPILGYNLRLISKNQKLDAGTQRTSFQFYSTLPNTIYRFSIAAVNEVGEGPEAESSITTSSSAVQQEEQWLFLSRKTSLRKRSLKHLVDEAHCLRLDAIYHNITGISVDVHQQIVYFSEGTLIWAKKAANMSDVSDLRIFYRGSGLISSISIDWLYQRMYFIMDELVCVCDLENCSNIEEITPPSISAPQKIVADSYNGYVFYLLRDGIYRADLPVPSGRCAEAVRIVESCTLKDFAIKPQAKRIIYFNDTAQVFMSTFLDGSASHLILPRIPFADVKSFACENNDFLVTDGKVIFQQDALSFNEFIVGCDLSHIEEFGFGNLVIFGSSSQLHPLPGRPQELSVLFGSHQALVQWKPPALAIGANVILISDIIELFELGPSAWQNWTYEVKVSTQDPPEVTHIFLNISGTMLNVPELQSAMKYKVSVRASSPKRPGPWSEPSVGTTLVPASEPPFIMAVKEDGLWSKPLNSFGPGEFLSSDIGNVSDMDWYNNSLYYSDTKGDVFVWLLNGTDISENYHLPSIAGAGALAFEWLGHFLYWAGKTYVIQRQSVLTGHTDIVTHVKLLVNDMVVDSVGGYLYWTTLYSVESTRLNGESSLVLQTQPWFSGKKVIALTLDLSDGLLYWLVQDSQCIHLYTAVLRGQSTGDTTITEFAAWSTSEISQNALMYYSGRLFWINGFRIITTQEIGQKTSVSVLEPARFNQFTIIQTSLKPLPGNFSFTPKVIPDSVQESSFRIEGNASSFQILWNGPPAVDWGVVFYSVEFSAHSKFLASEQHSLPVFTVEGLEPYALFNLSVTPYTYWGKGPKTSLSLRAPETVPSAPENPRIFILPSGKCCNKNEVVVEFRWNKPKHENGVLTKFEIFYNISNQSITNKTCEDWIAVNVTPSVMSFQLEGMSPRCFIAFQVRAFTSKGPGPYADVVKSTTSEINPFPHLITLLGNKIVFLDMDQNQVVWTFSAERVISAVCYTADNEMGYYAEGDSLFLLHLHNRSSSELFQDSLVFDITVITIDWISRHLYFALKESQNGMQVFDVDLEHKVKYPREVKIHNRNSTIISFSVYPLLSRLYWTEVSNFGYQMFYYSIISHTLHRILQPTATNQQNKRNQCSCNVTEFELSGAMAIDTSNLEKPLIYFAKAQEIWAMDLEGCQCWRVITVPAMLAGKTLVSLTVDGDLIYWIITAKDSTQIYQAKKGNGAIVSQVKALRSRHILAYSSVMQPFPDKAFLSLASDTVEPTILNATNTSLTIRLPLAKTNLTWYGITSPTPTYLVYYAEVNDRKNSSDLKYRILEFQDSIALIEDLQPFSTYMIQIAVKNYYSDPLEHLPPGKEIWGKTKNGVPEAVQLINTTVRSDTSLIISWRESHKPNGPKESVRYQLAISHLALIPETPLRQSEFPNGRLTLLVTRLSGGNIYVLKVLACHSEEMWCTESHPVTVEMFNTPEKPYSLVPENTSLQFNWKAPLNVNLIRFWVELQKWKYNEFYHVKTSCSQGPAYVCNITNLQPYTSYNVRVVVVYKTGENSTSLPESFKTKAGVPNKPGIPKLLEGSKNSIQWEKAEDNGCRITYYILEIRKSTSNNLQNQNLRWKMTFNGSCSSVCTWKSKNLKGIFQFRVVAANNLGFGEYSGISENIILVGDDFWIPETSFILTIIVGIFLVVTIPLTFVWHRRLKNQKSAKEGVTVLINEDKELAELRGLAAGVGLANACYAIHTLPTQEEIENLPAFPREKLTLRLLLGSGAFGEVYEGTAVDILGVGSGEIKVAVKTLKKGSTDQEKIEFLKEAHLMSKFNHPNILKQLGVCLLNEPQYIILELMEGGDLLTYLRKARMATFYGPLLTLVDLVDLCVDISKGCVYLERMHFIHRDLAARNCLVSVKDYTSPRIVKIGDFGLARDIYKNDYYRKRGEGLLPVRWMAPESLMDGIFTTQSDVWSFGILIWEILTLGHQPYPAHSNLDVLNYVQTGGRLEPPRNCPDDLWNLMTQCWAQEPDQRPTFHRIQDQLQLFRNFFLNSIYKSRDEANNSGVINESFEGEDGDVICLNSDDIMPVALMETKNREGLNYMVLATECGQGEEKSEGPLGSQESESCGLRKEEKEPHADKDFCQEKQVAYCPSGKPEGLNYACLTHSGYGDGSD

SMILES	pIC50 (ROS tyrosine kinase)	pIC50 (JAK2 tyrosine kinase)	GI50 (FIG-ROS/BaF3 cell)	effectiveness for patients of non-small cell lung cancer with ROS fusion gene positive [1]
COc1c(Nc2ncns2)nc(N2CCC[C@H]2c2ccc(C)cc2)nc1-c1cnn(CCO)c1 [Example 61, 2-(4-{5-Methoxy-2-[(2S)-2-(4-methylphenyl)pyrrolidin-1-yl]-6-(1,2,4-thiadiazol-5-ylamino)pyrimidin-4-yl}-1H-pyrazol-1-yl)ethanol]	8.60	6.31	1 nM	
C[C@@H](Oc1cc(-c2cnn(C3CCNCC3)c2)cnc1N)c1c(Cl)ccc(F)c1Cl [crizotinib]				effective
Cc1ccc(C2CCCN2c2nc(Nc3ncc(C#N)s3)cc(C(=O)N[C@H](C)CO)n2)cc1 (stereo partly drawn) [Example 12, 6-[(5-Cyano-1,3-thiazol-2-yl)amino]-N-[(2R)-1-hydroxypropan-2-yl]-2-[2-(4-methylphenyl)pyrrolidin-1-yl]pyrimidine-4-carboxamide]	7.68	6.27	24 nM	
N#Cc1cnc(Nc2nc(N3CCCC3c3ccc(F)cc3)cnc2-c2ccncc2)s1 (stereo not shown) [Example 26, 2-({6-[2-(4-Fluorophenyl)pyrrolidin-1-yl]-3-(pyridin-4-yl)pyrazin-2-yl}amino)-1,3-thiazole-5-carbonitrile]	7.92	< 6.00	10 nM	
Cc1ccc([C@@H]2CCCN2c2cncc(Nc3ncc(C#N)s3)n2)cc1 [Example 1, 2-({6-[(2S)-2-(4-Methylphenyl)pyrrolidin-1-yl]pyrazin-2-yl}amino)-1,3-thiazole-5-carbonitrile hydrochloride]	8.80	7.12	2.2 nM	
CCc1cnc(Nc2cncc(N3CCCC3c3ccc(C)cc3)n2)s1 (stereo not shown) [Example 45, N-(5-Ethyl-1,3-thiazol-2-yl)-6-[2-(4-methylphenyl)pyrrolidin-1-yl]pyrazine-2-amine]	8.14	6.68	7.6 nM	

Now from value to compound, other results behind:

pIC50 (ROS tyrosine kinase)	pIC50 (JAK2 tyrosine kinase)	GI50 (FIG-ROS/BaF3 cell)	SMILES	effectiveness for patients of non-small cell lung cancer with ROS fusion gene positive [1]
8.59	< 6.00	1.5 nM	COCCNC(=O)c1nc(N2CCC[C@H]2c2ccc(C)cc2)nc(Nc2ncc(C#N)s2)c1OC [Example 64, 6-[(5-Cyano-1,3-thiazol-2-yl)amino]-5-methoxy-N-(2-methoxyethyl)-2-[(2S)-2-(4-methylphenyl)pyrrolidin-1-yl]pyrimidine-4-carboxamide]	
8.59	6.66	2.9 nM	COc1cnc(N2CCCC2c2ccc(C)cc2)nc1Nc1ncc(C#N)s1 (stereo not shown) [Example 19, 2-({5-Methoxy-2-[2-(4-methylphenyl)pyrrolidin-1-yl]pyrimidin-4-yl}amino)-1,3-thiazole-5-carbonitrile]	
8.54	< 6.00	1.7 nM	CCc1c(C)nc(N2CCC[C@H]2c2ccc(C)cc2)nc1Nc1ncc(C#N)s1 [Example 70, 2-({5-Ethyl-6-methyl-2-[(2S)-2-(4-methylphenyl)pyrrolidin-1-yl]pyrimidin-4-yl}amino)-1,3-thiazole-5-carbonitrile maleate]	
8.57	< 6.00	1.8 nM	CCc1c(COC)nc(N2CCC[C@H]2c2ccc(C)cc2)nc1Nc1ncc(C#N)s1 [Example 57, 2-({5-Ethyl-6-(methoxymethyl)-2-[(2S)-2-(4-methylphenyl)pyrrolidin-1-yl]pyrimidin-4-yl}amino)-1,3-thiazole-5-carbo nitrile]	
7.80	< 6.00	20 nM	COc1ccc(-c2nc(N3CCCC3c3ccc(C)cc3)nc(Nc3ncc(C#N)s3)c2C)cn1 (stereo not shown) [Example 15, 2-({6-(6-Methoxypyridin-3-yl)-5-methyl-2-[2-(4-methylphenyl)pyrrolidin-1-yl]pyrimidin-4-yl}amino)-1,3-thiazole-5-carbonitrile]	
